Laboratory results: patent US10654818B2, “Furane derivatives as inhibitors of ATAD2” (BAYER PHARMA AKTIENGESELLSCHAFT, priority 2015, dated 2020)

Key:
[1] = target: T1, recombinant, N-terminally GST-tagged ATAD2 bromodomain amino acids 981-1108 (Homo sapiens, UniProt Q6PL18); test: TR-FRET assay: disruption of the interaction between ATAD2 and acetylated Histone H4 (Ac-H4) peptide; type: binding; conditions: inhibition of ATAD2/Ac-H4 complex formation; 10 nM ATAD2, 50 nM Ac-H4 peptide
T1 construct: ATAD2 bromodomain amino acids 981-1108; made in house; host or cells: E. coli
T1 sequence (Q6PL18 981-1108): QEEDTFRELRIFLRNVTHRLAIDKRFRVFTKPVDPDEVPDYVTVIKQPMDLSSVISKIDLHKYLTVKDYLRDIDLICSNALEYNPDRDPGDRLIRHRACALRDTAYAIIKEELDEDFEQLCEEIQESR
Summary of the method: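 10 nM protein (final) pre-incubated 10 min at 22 °C with compound (0.1 nM-20 μM, 11 points, duplicate), then 50 nM biotinylated Ac-H4 peptide plus anti-GST-XL665/streptavidin-Eu added for 1 h at 22 °C in HEPES pH 7.5 buffer. 665/622 nm emission ratio read; IC50 from 4-parameter fit of normalized inhibition.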

MCF7 breast cancer cells = test: Cell proliferation assay (alamarBlue), MCF7; type: cell-based; conditions: Homo sapiens, 72 h incubation, GI50 = half-maximal growth inhibition
Method: (§1) The effect of ATAD2 inhibitory compounds on cancer cell proliferation might be measured as below. For example; MCF7 breast cancer cells might be seeded into 96-well microtiter plates at 2000 cells/well in 90 μl cell culture media (RPMI 1640, 10% FCS, 2 mM L-Glutamine, 10 μg/ml human Insulin, […]) and incubated for 24 h at 37° C. and 5% CO2. Note, the culturing conditions might vary from cell line to cell line depending on their standard culturing conditions. Compounds might be then delivered to the microtiter assay plates and, following a 72 h long incubation period at 37° C. and 5% CO2, the viability of the cells might be measured with addition of alamarBlue® (Invitrogen) to the medium in Victor X3 Multilabel Plate Reader (Perkin Elmer).
(§2) GI50 means half-maximal growth inhibition.

NCl-H526 lung cancer = test: Cell proliferation assay (alamarBlue), NCl-H526; type: cell-based; conditions: GI50 = half-maximal growth inhibition
Method: as §1, §2

Row | Structure (SMILES) | IC50 [1] | GI50 (MCF7 breast cancer cells) | GI50 (NCl-H526 lung cancer)
1 | COc1cc(Cl)c(C(=O)N[C@@H](CO)Cc2ccc(C#N)cc2)cc1-c1ccc(CN[C@H](C)c2ccc(C)cc2)o1 [Example 81, 2-chloro-N-[(2R)-1-(4-cyanophenyl)-3-hydroxypropan-2-yl]-4-methoxy-5-[5-({[(1R)-1-(4-methylphenyl)ethyl]amino}methyl)-2-furyl]benzamide] | 301 nM | 10.4 µM | 10.2 µM
2 | COc1cc(Cl)c(C(=O)N[C@@H](CN[C@H]2CC[C@@H](N)CC2)Cc2ccc(C#N)cc2)cc1-c1ccc(CN[C@H](C)c2ccc(C)cc2)o1 [Example 86, N-[(2R)-1-[(4-aminocyclohexyl)amino]-3-(4-cyanophenyl)propan-2-yl]-2-chloro-4-methoxy-5-[5-({[(1R)-1-(4-methylphenyl)ethyl]amino}methyl)-2-furyl]benzamide] | 166 nM | 3.2 µM | 2.4 µM
3 | Cc1ccc([C@@H](C)NCc2ccc(-c3cc(C(=O)N[C@@H](CO)Cc4ccc(C#N)cc4)c(Cl)cc3O)o2)cc1 [Example 90, 2-chloro-N-[(2R)-1-(4-cyanophenyl)-3-hydroxypropan-2-yl]-4-hydroxy-5-[5-({[(1R)-1-(4-methylphenyl)ethyl]amino}methyl)-2-furyl]benzamide] | 367 nM | 10.8 µM | 19.1 µM
